US20060276464A1, “Diarylsulfone sulfonamides and use thereof” (Wyeth, priority 2005, published 2006)
pEC50, pIC50: −log10 of the molar value. Read-outs that look alike come from different tables or passages of the source.

Legend:
SFRP-1 [1] = molecular target: T1, SFRP-1 (Homo sapiens, UniProt Q8N474); experiment: Cell-based assay for in vitro measurement of SFRP-1/SARP2 antagonist activity (U2OS cells co-transfected with 16x TCF-tk-Luciferase reporter, Wnt and hSFRP-1); details: for fold induction at 10 µM / fold induction at 15 µM: U2OS; for fold induction at 10 µM: read-out: Fold Induction with SFRP-1, U2OS cells, single dose 10 μM, luciferase reporter, fold induction over SFRP-1 control;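 on all read-outs here: U2OS cells co-transfected with a TCF-tk luciferase reporter, a Wnt vector, hSFRP-1 or empty vector and CMV-βgal, luciferase luminescence read in cell lysates alongside βgal activity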
T1 sequence (Q8N474 32-314): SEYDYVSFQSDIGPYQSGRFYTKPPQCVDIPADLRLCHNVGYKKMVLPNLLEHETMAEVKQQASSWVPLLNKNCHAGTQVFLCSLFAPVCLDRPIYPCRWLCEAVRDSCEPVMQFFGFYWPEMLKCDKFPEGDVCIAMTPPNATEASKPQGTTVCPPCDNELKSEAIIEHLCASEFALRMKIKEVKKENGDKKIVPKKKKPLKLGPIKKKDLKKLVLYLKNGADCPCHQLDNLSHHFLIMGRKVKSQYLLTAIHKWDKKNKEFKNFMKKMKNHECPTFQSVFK

SFRP-1 [2] = molecular target: T1, SFRP-1; experiment: Fluorescence polarization binding assay (competitive displacement of a probe compound from SFRP-1); details: fluorescence anisotropy, 45 nM SFRP-1, 20 nM probe;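 further: test compound competes with a fluorescent probe held by SFRP-1, seen as a drop in probe anisotropy after incubation in darkness, with anisotropy as function of rising compound dose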
[3] = read-out: Fold Induction with SFRP-1, Conc 15 μM, with SFRP-1, fold induction over SFRP-1 control, single dose
[4] = read-out: Fold Induction without SFRP-1, Conc 15 μM, without SFRP-1, single dose
[5] = read-out: Fold Induction with SFRP-1, Conc 15 μM, single dose, luciferase reporter, fold induction over SFRP-1 control, cells with SFRP-1
[6] = read-out: Fold Induction without SFRP-1, Conc 15 μM, single dose, luciferase reporter, cells without SFRP-1 (specificity control)

Row | Structure (SMILES) | pEC50 (SFRP-1 [1]) | fold induction at 10 µM (SFRP-1 [1]) | pIC50 (SFRP-1 [2]) | fold induction at 15 µM (SFRP-1 [1]; [3]) | fold induction at 15 µM (SFRP-1 [1]; [4]) | fold induction at 15 µM (SFRP-1 [1]; [5]) | fold induction at 15 µM (SFRP-1 [1]; [6])
1 | COc1cccc(S(=O)(=O)c2ccc(C(F)(F)F)c(S(=O)(=O)NC3CCN(C(=O)c4ccc(C(C)(C)C)cc4)CC3)c2)c1 [Example 746, N-[1-(4-tert-butylbenzoyl)piperidin-4-yl]-5-[(3-methoxyphenyl)sulfonyl]-2-(trifluoromethyl)benzenesulfonamide] | 6.34 | 5 | 6.52 |  |  |  | 
2 | CCc1ccc(S(=O)(=O)c2ccc(F)cc2)cc1S(=O)(=O)NCCCn1ccnc1 [Example 303, 2-ethyl-5-[(4-fluorophenyl)sulfonyl]-N-[3-(1H-imidazol-1-yl)propyl]benzenesulfonamide] |  |  | 6.15 | 2.7 | 0.8 |  | 
3 | COC(=O)CCNS(=O)(=O)c1cc(S(=O)(=O)c2ccccc2)ccc1C [Example 204, methyl N-{[2-methyl-5-(phenylsulfonyl)phenyl]sulfonyl}-beta-alaninate] |  |  | 5.10 | 3.4 | 1.1 |  | 
4 | CC(C)c1ccc(S(=O)(=O)c2ccccc2)cc1S(=O)(=O)NCC(O)c1ccccn1 (centres unmarked) [Example 728, N-(2-hydroxy-2-pyridin-2-ylethyl)-2-isopropyl-5-(phenylsulfonyl)benzene-sulfonamide] |  | 3.1 | 5.40 |  |  |  | 
5 | O=C(c1ccc(=O)[nH]c1)N1CCC(NS(=O)(=O)c2cc(S(=O)(=O)c3ccccc3)ccc2C(F)(F)F)CC1 [Example 1040, N-{1-[(6-oxo-1,6-dihydropyridin-3-yl)carbonyl]piperidin-4-yl}-5-(phenylsulfonyl)-2-(trifluoromethyl)benzenesulfonamide] | 6.66 |  | 6.85 |  |  |  | 
6 | Cc1ccccc1NC(=S)N1CCC(NS(=O)(=O)c2cc(S(=O)(=O)c3ccc(F)cc3)ccc2C(C)C)CC1 [Example 692, 4-[({5-[(4-fluorophenyl)sulfonyl]-2-isopropylphenyl}sulfonyl)amino]-N-(2-methylphenyl)piperidine-1-carbothioamide] | 5.07 | 3 | 5.77 |  |  |  | 
7 | O=S(=O)(NCc1ccncc1)c1cc(S(=O)(=O)c2ccccc2)ccc1C(F)(F)F [Example 949, 5-(phenylsulfonyl)-N-(pyridin-4-ylmethyl)-2-(trifluoromethyl)benzenesulfonamide] | 6.00 | 3.2 | 6.10 |  |  |  | 
8 | C[C@@H](NS(=O)(=O)c1cc(S(=O)(=O)c2ccccc2)ccc1Cl)[C@H](O)c1ccccc1 (relative stereo) [Example 676, 2-chloro-N-[(1R*,2R*)-2-hydroxy-1-methyl-2-phenylethyl]-5-(phenylsulfonyl)benzenesulfonamide] | 5.05 | 2.6 | 5.05 |  |  |  | 
9 | Cc1ccc(S(=O)(=O)c2ccccc2)cc1S(=O)(=O)NC1CCOCC1 [Example 298, 2-methyl-5-(phenylsulfonyl)-N-tetrahydro-2H-pyran-4-ylbenzenesulfonamide] |  |  | 6.10 | 3.2 | 1.3 |  | 
10 | CC(C)c1ccc(S(=O)(=O)c2ccc(F)cc2)cc1S(=O)(=O)NC1CCN(Cc2ccccc2)CC1 [Example 525, N-(1-benzylpiperidin-4-yl)-5-[(4-fluorophenyl)sulfonyl]-2-isopropylbenzenesulfonamide] |  |  | 6.00 |  |  | 2.1 | 1.1
11 | CCNc1ccc(S(=O)(=O)c2ccc(C)c(S(=O)(=O)NCCCn3ccnc3)c2)cc1 [Example 311, 5-{[4-(ethylamino)phenyl]sulfonyl}-N-[3-(1H-imidazol-1-yl)propyl]-2-methylbenzenesulfonamide] |  |  | 6.40 | 2.4 | 1 |  | 
12 | CC(C(N)=O)N1CCC(NS(=O)(=O)c2cc(S(=O)(=O)c3ccccc3)ccc2C(F)(F)F)CC1 (centres unmarked) [Example 1003, 2-[4-({[5-(phenylsulfonyl)-2-(trifluoromethyl)phenyl]sulfonyl}amino)piperidin-1-yl]propanamide] | 6.40 |  | 6.85 |  |  |  | 
13 | CC(C)c1ccc(S(=O)(=O)c2ccc(F)cc2)cc1S(=O)(=O)NC1CCN(C(=O)C2CC2)CC1 [Example 530, N-[1-(cyclopropylcarbonyl)piperidin-4-yl]-5-[(4-fluorophenyl)sulfonyl]-2-isopropylbenzenesulfonamide] |  |  | 6.15 |  |  | 3 | 1
14 | CCOC(=O)N1CCC(NS(=O)(=O)c2cc(S(=O)(=O)c3ccccc3)ccc2C)CC1 [Example 425, ethyl 4-({[2-methyl-5-(phenylsulfonyl)phenyl]sulfonyl}amino)piperidine-1-carboxylate] |  |  | 5.55 | 2.5 | 1.2 |  | 
15 | CC(C)(C)c1ccc(C(=O)N2CCC(NS(=O)(=O)c3cc(S(=O)(=O)c4ccccc4)ccc3C(F)(F)F)C2)cc1 (centres unmarked) [Example 761, N-[1-(4-tert-butylbenzoyl)pyrrolidin-3-yl]-5-(phenylsulfonyl)-2-(trifluoromethyl)benzenesulfonamide] | 5.80 | 3.2 | 6.22 |  |  |  | 
16 | CN(CCNS(=O)(=O)c1cc(S(=O)(=O)c2ccccc2)ccc1C(F)(F)F)C(=O)c1ccc(C(F)(F)F)c(F)c1 [Example 847, 3-Fluoro-N-methyl-N-[2-({[5-(phenylsulfonyl)-2-(trifluoromethyl)phenyl]sulfonyl}amino)ethyl]-4-(trifluoromethyl)benzamide] |  | 2.4 | 5.66 |  |  |  | 
17 | O=S(=O)(N[C@H]1CCCNC1)c1cc(S(=O)(=O)c2ccccc2)ccc1C(F)(F)F [Example 790, 5-(phenylsulfonyl)-N-[(3S)-piperidin-3-yl]-2-(trifluoromethyl)benzenesulfonamide] |  | 3.1 | 5.70 |  |  |  | 
18 | COC(=O)CN1CCC(NS(=O)(=O)c2cc(S(=O)(=O)c3ccccc3)ccc2C(F)(F)F)CC1 [Example 1063, methyl [4-({[5-(phenylsulfonyl)-2-(trifluoromethyl)phenyl]sulfonyl)amino)piperidin-1-yl]acetate] | 6.34 |  | 6.85 |  |  |  | 
19 | C[S+]([O-])c1ccc(C(=O)N2CCC(NS(=O)(=O)c3cc(S(=O)(=O)c4ccccc4)ccc3C(F)(F)F)CC2)cc1 (centres unmarked) [Example 1052, N-{1-[4-(Methylsulfinyl)benzoyl]piperidin-4-yl}-5-(phenylsulfonyl)-2-(trifluoromethyl)benzenesulfonamide] | 6.81 |  | 7.05 |  |  |  | 
20 | O=C(c1ccnc(Cl)c1)N1CCC(NS(=O)(=O)c2cc(S(=O)(=O)c3ccccc3)ccc2C(F)(F)F)CC1 [Example 978, N-[1-(2-chloroisonicotinoyl)piperidin-4-yl]-5-(phenylsulfonyl)-2-(trifluoromethyl)benzenesulfonamide] | 6.41 |  | 6.60 |  |  |  | 
21 | CC(C)(C)c1ccc(C(=O)N2CCC(NS(=O)(=O)c3cc(S(=O)(=O)c4cccc(O)c4)ccc3C(F)(F)F)CC2)cc1 [Example 764, N-[1-(4-tert-butylbenzoyl)piperidin-4-yl]-5-[(3-hydroxyphenyl)sulfonyl]-2-(trifluoromethyl)benzenesulfonamide] | 6.33 | 0.6 | 6.57 |  |  |  | 
22 | O=S(=O)(NCCc1nn[nH]n1)c1cc(S(=O)(=O)c2ccccc2)ccc1C(F)(F)F [Example 863, 5-(phenylsulfonyl)-N-[2-(2H-tetrazol-5-yl)ethyl]-2-(trifluoromethyl)benzenesulfonamide] |  | 2.4 | 5.74 |  |  |  | 
23 | Cc1cc(C)c(S(=O)(=O)c2ccccc2)cc1S(=O)(=O)NCCn1ccnc1 [Example 324, N-[2-(1H-imidazol-1-yl)ethyl]-2,4-dimethyl-5-(phenylsulfonyl)benzenesulfonamide] |  |  | 6.05 | 3.2 | 0.9 |  | 
24 | CN(CCNS(=O)(=O)c1cc(S(=O)(=O)c2ccccc2)ccc1C(F)(F)F)S(=O)(=O)c1cccc(C(=O)O)c1 [Example 883, 3-({methyl[2-({[5-(phenylsulfonyl)-2-(trifluoromethyl)phenyl]sulfonyl}amino)ethyl]amino}sulfonyl)benzoic acid] | 5.59 | 2.7 | 6.40 |  |  |  | 
25 | COC(=O)C1CCCC(NS(=O)(=O)c2cc(S(=O)(=O)c3ccccc3)ccc2C(F)(F)F)C1 (centres unmarked) [Example 945, methyl 3-({[5-(phenylsulfonyl)-2-(trifluoromethyl)phenyl]sulfonyl}amino)cyclohexanecarboxylate] | 5.95 | 2.9 | 6.05 |  |  |  | 
26 | O=S(=O)(NC1Cc2ccc(Br)cc2C1)c1cc(S(=O)(=O)c2ccccc2)ccc1C(F)(F)F (centres unmarked) [Example 1094, N-(5-bromo-2,3-dihydro-1H-inden-2-yl)-5-(phenylsulfonyl)-2-(trifluoromethyl)benzenesulfonamide] |  | 10.4 | 6.96 |  |  |  | 
27 | Cc1ccc(S(=O)(=O)c2ccc(F)cc2)cc1S(=O)(=O)NC1CCN(C(=O)c2ccc(C#N)cc2)CC1 [Example 586, N-[1-(4-cyanobenzoyl)piperidin-4-yl]-5-[(4-fluorophenyl)sulfonyl]-2-methylbenzenesulfonamide] |  |  | 5.62 |  |  | 1.9 | 1.1
